Values quoted from earlier work in patent US20040058899A1, “Use of epothilones and analogs in conjunction with ophthalmic surgery” (priority 2002, published 2004).

System: tumor-implanted mice
Details: for toxic effects / animal deaths: comparably effective doses

COc1cccc2c1C(=O)c1c(O)c3c(c(O)c1C2=O)C[C@@](O)(C(=O)CO)C[C@@H]3O[C@H]1C[C@H](N)[C@H](O)[C@H](C)O1 [adriamycin]
toxic effects / animal deaths: caused some animal deaths

C/C1=C/C[C@@H](/C(C)=C/c2csc(C)n2)OC(=O)C[C@H](O)C(C)(C)C(=O)[C@H](C)[C@@H](O)[C@@H](C)CCC1 [deoxyepothilone B]
tumor regression: complete tumor regression
toxic effects / animal deaths: without any noticeable toxic effects

CC(=O)O[C@H]1C(=O)[C@@]2(C)[C@H]([C@H](OC(=O)c3ccccc3)[C@]3(O)C[C@H](OC(=O)[C@H](O)[C@@H](NC(=O)c4ccccc4)c4ccccc4)C(C)=C1C3(C)C)[C@]1(OC(C)=O)CO[C@@H]1C[C@@H]2O [paclitaxel]
toxic effects / animal deaths: caused some animal deaths
